From patent US8017606B2, “Quinoline derivatives as antibacterial agents” (Janssen Pharmaceutica NV, priority 2005, dated 2011)
Converted amounts (≈) assume the structure as drawn.

What was measured:
[1] = tested on: Staphylococcus aureus (ATCC25923); assay: Microtitre plate assay, IC90 determination; format: cell-based; details: 90% inhibitory concentration for bacterial growth, 37° C., resazurin fluorescence, read-out: IC90 (μg/ml) STA 25923
Protocol: (§1) The bacteria used in this study were grown overnight in flasks containing 100 ml Mueller-Hinton Broth (Becton Dickinson—cat. no. 275730) in sterile de-ionized water, with shaking, at 37° C. Stocks (0.5 ml/tube) were stored at −70° C. until use. Bacteria titrations were performed in microtiter plates and colony forming units (CFUs) were determined. In general, an inoculum level of approximately 100 CFUs was used for susceptibility testing.
(§2) Anti Bacterial Susceptibility Testing: IC90 Determination
(§3) Flat-bottom, sterile 96-well plastic microtiter plates were filled with 180 μl of sterile deionized water, supplemented with 0.25% BSA. Subsequently, stock solutions (7.8×final test concentration) of compounds were added in 45 μl volumes in column 2 Serial five-fold dilutions (45 μl in 180 μl) were made directly in the microtiter plates from column 2 to reach column 11. Untreated control samples with (column 1) and without (column 12) inoculum were included in each microtiter plate. Depending on the bacteria type, approximately 10 to 60 CFU per well of bacteria inoculum (100 TCID50), in a volume of 100 μl in 2.8× Mueller-Hinton broth medium, was added to the rows A to H, except column 12. The same volume of broth medium without inoculum was added to column 12 in row A to H. The cultures were incubated at 37° C. for 24 hours under a normal atmosphere (incubator with open air valve and continuous ventilation). At the end of incubation, one day after inoculation, the bacterial growth was quantitated fluorometrically. Therefore resazurin (0.6 mg/ml) was added in a volume of 20 μl to all wells […], and the plates were re-incubated overnight. A change in colour from blue to pink indicated the growth of bacteria.
(§4) The fluorescence was read in a computer-controlled fluorometer (Cytofluor Biosearch) at an excitation wavelength of 530 nm and an emission wavelength of 590 nm. The % growth inhibition achieved by the compounds was calculated according to standard methods. The IC90 (expressed in μg/ml) was defined as the 90% inhibitory concentration for bacterial growth.

[2] = tested on: Streptococcus pneumoniae (ATCC6305); assay: Microtitre plate assay, IC90 determination; format: cell-based; details: 90% inhibitory concentration for bacterial growth, 37° C., resazurin fluorescence, read-out: IC90 (μg/ml) SPN 6305
Protocol: as §1, §2, §3, §4

[3] = tested on: Bacillus subtilis (ATCC43639); assay: Microtitre plate assay, IC90 determination; format: cell-based; details: 90% inhibitory concentration for bacterial growth, 37° C., resazurin fluorescence, read-out: IC90 (μg/ml) BSU 43639
Protocol: as §1, §2, §3, §4

[4] = tested on: Staphylococcus aureus (ATCC43300); assay: Microtitre plate assay, IC90 determination; format: cell-based; details: 90% inhibitory concentration for bacterial growth, 37° C., resazurin fluorescence, read-out: IC90 (μg/ml) STA 43300
Protocol: as §1, §2, §3, §4

[5] = tested on: Enterococcus faecalis (ATCC29212); assay: Microtitre plate assay, IC90 determination; format: cell-based; details: 90% inhibitory concentration for bacterial growth, 37° C., resazurin fluorescence, read-out: IC90 (μg/ml) EFA 29212
Protocol: as §1, §2, §3, §4

[6] = tested on: Staphylococcus aureus (ATCC29213); assay: Microtitre plate assay, IC90 determination; format: cell-based; details: 90% inhibitory concentration for bacterial growth, 37° C., resazurin fluorescence, read-out: IC90 (μg/ml) STA 29213
Protocol: as §1, §2, §3, §4

[7] = tested on: Listeria monocytogenes (ATCC49594); assay: Microtitre plate assay, IC90 determination; format: cell-based; details: 90% inhibitory concentration for bacterial growth, 37° C., resazurin fluorescence, read-out: IC90 (μg/ml) LMO 49594
Protocol: as §1, §2, §3, §4

[8] = tested on: Streptococcus mutans (ATCC33402); assay: Microtitre plate assay, IC90 determination; format: cell-based; details: 90% inhibitory concentration for bacterial growth, 37° C., resazurin fluorescence, read-out: IC90 (μg/ml) SMU 33402
Protocol: as §1, §2, §3, §4

[9] = tested on: Pseudomonas aeruginosa (ATCC27853); assay: Microtitre plate assay, IC90 determination; format: cell-based; details: 90% inhibitory concentration for bacterial growth, 37° C., resazurin fluorescence, read-out: IC90 (μg/ml) PAE 27853
Protocol: as §1, §2, §3, §4

[10] = tested on: methicilline resistant Staphylococcus aureus (MRSA) (a clinical isolate from the University of Antwerp); assay: Microtitre plate assay, IC90 determination; format: cell-based; details: 90% inhibitory concentration for bacterial growth, 37° C., resazurin fluorescence, read-out: IC90 (μg/ml) STA RMETHIC
Protocol: as §1, §2, §3, §4

[11] = tested on: Streptococcus pyogens (ATCC8668); assay: Microtitre plate assay, IC90 determination; format: cell-based; details: 90% inhibitory concentration for bacterial growth, 37° C., resazurin fluorescence, read-out: IC90 (μg/ml) SPY 8668
Protocol: as §1, §2, §3, §4

[12] = tested on: Enterococcus faecalis (ATCC14506); assay: Microtitre plate assay, IC90 determination; format: cell-based; details: 90% inhibitory concentration for bacterial growth, 37° C., resazurin fluorescence, read-out: IC90 (μg/ml) EFA 14506
Protocol: as §1, §2, §3, §4

Row | SMILES | IC90 [1] [µg/mL] | IC90 [2] [µg/mL] | IC90 [3] [µg/mL] | IC90 [4] [µg/mL] | IC90 [5] [µg/mL] | IC90 [6] [µg/mL] | IC90 [7] [µg/mL] | IC90 [8] [µg/mL] | IC90 [9] [µg/mL] | IC90 [10] [µg/mL] | IC90 [11] [µg/mL] | IC90 [12] [µg/mL] | melting point [°C]
1 | COc1nc2cccc(C(O)(CCN(C)C)c3cccc4ccccc34)c2cc1-c1ccccc1 (centres unmarked) [Compound 2] | 11.6 (≈ 25.1 µM) | 11.6 (≈ 25.1 µM) | 9.2 (≈ 19.9 µM) | 9.2 (≈ 19.9 µM) | 11.6 (≈ 25.1 µM) | 9.2 (≈ 19.9 µM) | 11.6 (≈ 25.1 µM) | 9.2 (≈ 19.9 µM) | 9.2 (≈ 19.9 µM) | 11.6 (≈ 25.1 µM) | 9.2 (≈ 19.9 µM) | 8.2 (≈ 17.7 µM) | –
2 | COc1nc2cccc(C(O)(CCN(C)C)c3ccc4ccccc4c3)c2cc1-c1ccccc1 (centres unmarked) [Compound 3] | 11.6 (≈ 25.1 µM) | 5.2 (≈ 11.2 µM) | 11.6 (≈ 25.1 µM) | 9.2 (≈ 19.9 µM) | 11.6 (≈ 25.1 µM) | 11.6 (≈ 25.1 µM) | 11.6 (≈ 25.1 µM) | 9.2 (≈ 19.9 µM) | 9.2 (≈ 19.9 µM) | 11.6 (≈ 25.1 µM) | 9.2 (≈ 19.9 µM) | – | –
3 | COc1nc2cccc(C(O)(CCN(C)C)c3cc4ccccc4o3)c2cc1-c1ccccc1 (centres unmarked) [Compound 6] | 11.4 (≈ 25.2 µM) | 11.4 (≈ 25.2 µM) | 11.4 (≈ 25.2 µM) | 9 (≈ 19.9 µM) | 11.4 (≈ 25.2 µM) | 9 (≈ 19.9 µM) | 11.4 (≈ 25.2 µM) | 9 (≈ 19.9 µM) | 9 (≈ 19.9 µM) | 10.1 (≈ 22.3 µM) | 9 (≈ 19.9 µM) | – | –
4 | COc1nc2c(C(O)(CCN(C)C)c3ccccc3)cc(Br)cc2cc1Cc1ccccc1 (centres unmarked) [Compound 8] | 11.3 (≈ 22.4 µM) | 11.3 (≈ 22.4 µM) | 12.7 (≈ 25.1 µM) | – | – | 10.1 (≈ 20 µM) | 40.2 (≈ 79.5 µM) | 10.1 (≈ 20 µM) | 12.7 (≈ 25.1 µM) | 11.3 (≈ 22.4 µM) | 10.1 (≈ 20 µM) | 11.3 (≈ 22.4 µM) | 66
5 | COc1nc2c(C(O)(CCN(C)C)c3cc(F)cc(F)c3)cc(Br)cc2cc1-c1ccccc1 (centres unmarked) [Compound 9] | 11.8 (≈ 22.4 µM) | 13.3 (≈ 25.2 µM) | – | 13.3 (≈ 25.2 µM) | 10.5 (≈ 19.9 µM) | 10.5 (≈ 19.9 µM) | 10.5 (≈ 19.9 µM) | 10.5 (≈ 19.9 µM) | 10.5 (≈ 19.9 µM) | 11.8 (≈ 22.4 µM) | 10.5 (≈ 19.9 µM) | 11.8 (≈ 22.4 µM) | –
6 | COc1nc2c(C(O)(CCN(C)C)c3cccs3)cc(Br)cc2cc1Cc1ccccc1 (centres unmarked) [Compound 10] | 11.5 (≈ 22.5 µM) | 11.5 (≈ 22.5 µM) | – | 12.9 (≈ 25.2 µM) | 10.2 (≈ 19.9 µM) | 12.9 (≈ 25.2 µM) | 10.2 (≈ 19.9 µM) | 10.2 (≈ 19.9 µM) | 12.9 (≈ 25.2 µM) | 10.2 (≈ 19.9 µM) | 10.2 (≈ 19.9 µM) | – | –
7 | CN(C)CCC(O)(c1cc(F)cc(F)c1)c1cc(Br)cc2cc(Cc3ccccc3)c(-n3ccnc3)nc12 (centres unmarked) [Compound 19] | 12.9 (≈ 22.3 µM) | 14.5 (≈ 25.1 µM) | 14.5 (≈ 25.1 µM) | 11.5 (≈ 19.9 µM) | 14.5 (≈ 25.1 µM) | 14.5 (≈ 25.1 µM) | 14.5 (≈ 25.1 µM) | 11.5 (≈ 19.9 µM) | 14.5 (≈ 25.1 µM) | 14.5 (≈ 25.1 µM) | 11.5 (≈ 19.9 µM) | – | –
8 | CN(C)CCC(O)(Cc1c(-c2ccccc2)c(-c2ccccc2)nc2ccccc12)c1cc(F)cc(F)c1 (centres unmarked) [Compound 21] | 12.8 (≈ 25.2 µM) | 12.8 (≈ 25.2 µM) | 12.8 (≈ 25.2 µM) | – | 12.8 (≈ 25.2 µM) | 12.8 (≈ 25.2 µM) | 12.8 (≈ 25.2 µM) | – | 12.8 (≈ 25.2 µM) | 12.8 (≈ 25.2 µM) | 12.8 (≈ 25.2 µM) | – | 173
9 | CN(C)CCC(O)(c1cc(F)cc(F)c1)c1cc(Br)cc2cc(-c3ccccc3)c(-n3ccnc3)nc12 (centres unmarked) [Compound 22] | 12.6 (≈ 22.4 µM) | 12.6 (≈ 22.4 µM) | – | – | 14.2 (≈ 25.2 µM) | 14.2 (≈ 25.2 µM) | 14.2 (≈ 25.2 µM) | 11.2 (≈ 19.9 µM) | 14.2 (≈ 25.2 µM) | 14.2 (≈ 25.2 µM) | 11.2 (≈ 19.9 µM) | – | 136
10 | CN(C)CCC(O)(c1ccccc1)c1cc(Br)cc2cc(Cc3ccccc3)c(OCCN3CCCCC3)nc12 (centres unmarked) [Compound 48] | 53.7 (≈ 89.1 µM) | 60.3 (≈ 100 µM) | 60.3 (≈ 100 µM) | – | 60.3 (≈ 100 µM) | 53.7 (≈ 89.1 µM) | 60.3 (≈ 100 µM) | 47.9 (≈ 79.5 µM) | 47.9 (≈ 79.5 µM) | 60.3 (≈ 100 µM) | 47.9 (≈ 79.5 µM) | – | 131
11 | COc1nc2c(C(O)(CCN(C)C)c3ccccc3)cc(-c3cccnc3)cc2cc1Cc1ccccc1 (centres unmarked) [Compound 66] | 50.4 (≈ 100 µM) | 50.4 (≈ 100 µM) | 50.4 (≈ 100 µM) | – | 50.4 (≈ 100 µM) | 40 (≈ 79.4 µM) | 50.4 (≈ 100 µM) | 40 (≈ 79.4 µM) | 40 (≈ 79.4 µM) | 50.4 (≈ 100 µM) | 40 (≈ 79.4 µM) | – | 180
12 | CN(C)CCC(O)(c1cccc2ccccc12)c1cc(Br)cc2cc(-c3ccccc3)c(=O)[nH]c12 (centres unmarked) [Compound 69] | 52.8 (≈ 100 µM) | 13.3 (≈ 25.2 µM) | 52.8 (≈ 100 µM) | – | 13.3 (≈ 25.2 µM) | 13.3 (≈ 25.2 µM) | 41.9 (≈ 79.4 µM) | – | 13.3 (≈ 25.2 µM) | 52.8 (≈ 100 µM) | 13.3 (≈ 25.2 µM) | – | 190
13 | COc1nc2ccccc2c(CC(O)(CCN(C)C)c2cccc(F)c2)c1Cc1ccccc1 (centres unmarked) [Compound 71] | 11.5 (≈ 25.1 µM) | 11.5 (≈ 25.1 µM) | 11.5 (≈ 25.1 µM) | – | 11.5 (≈ 25.1 µM) | 11.5 (≈ 25.1 µM) | 9.2 (≈ 20.1 µM) | 9.2 (≈ 20.1 µM) | 11.5 (≈ 25.1 µM) | 11.5 (≈ 25.1 µM) | 9.2 (≈ 20.1 µM) | – | 123
